# Source: PMC4789100 (Environment international, 2009)
# Several values for one entry are separate records, joined by “and”; a condition that tells them apart may be missing. Identical values can stand only once. Entries after “also recorded” stand apart in the source; their conditions may differ. Like-named read-outs stand apart in the source and are kept apart here.
# How the values were obtained:
# expressed human SULT1E1 = conditions: cited from earlier work
# [1] = molecular target: T1, sheep placental cytosolic estrogen sulfotransferase (estradiol as substrate) (Ovis aries, UniProt A0ACI6NYW9); assay type: biochemical
# T1 sequence (A0ACI6NYW9 1-296): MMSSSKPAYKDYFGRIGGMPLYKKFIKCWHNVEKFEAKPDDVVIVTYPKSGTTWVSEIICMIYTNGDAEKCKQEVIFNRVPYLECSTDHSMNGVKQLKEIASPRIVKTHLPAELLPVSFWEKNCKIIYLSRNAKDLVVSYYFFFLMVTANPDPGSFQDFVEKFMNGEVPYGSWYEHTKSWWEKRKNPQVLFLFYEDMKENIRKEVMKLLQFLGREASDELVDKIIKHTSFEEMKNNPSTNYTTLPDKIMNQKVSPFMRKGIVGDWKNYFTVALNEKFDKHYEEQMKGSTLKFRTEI
# [2] = system: sheep placental microsomes; assay: Triclosan glucuronidation in placental microsomes with 14C-UDPGA; assay type: in vitro ADME; conditions: 1 μM Triclosan; limit of detection <0.5 pmol/min/mg protein
# [3] = Triclosan sulfonation in placental cytosol with 35S-PAPS; assay type: in vitro ADME, sheep; conditions: sheep, sheep placental cytosol, pH 7.4
# sheep placental cytosol = assay: as above; assay type: in vitro ADME
# [4] = cited from earlier work
# [5] = estradiol as substrate, mean±S.D., n=3
smiles,measurement,setting,value
"C[C@]12CC[C@@H]3c4ccc(O)cc4CC[C@H]3[C@@H]1CC[C@@H]2O [Estradiol, 17-beta-estradiol]",Estradiol concentration above which partial substrate inhibition is displayed,"expressed human SULT1E1; ref Zhang et al.,1998",above 20 nM
same,"Ki, constant for partial inhibition of estradiol sulfotransferase activity by substrate",[1]; [5],54.7 ± 25.3 nM
same,"Vmin, plateau low rate at high estradiol concentrations",[1]; [5],12.1±7.7 pmol/min/mg protein
"Oc1cc(Cl)ccc1Oc1ccc(Cl)cc1Cl [Triclosan, 5-chloro-2(2,4-dichlorophenoxy)-phenol]",Glucuronidation,[2],not a substrate for glucuronidation; also recorded: no detectable glucuronidation
same,Km at 15 min,[3],1.14 ± 0.18 µM
same,Sulfonation apparent Vmax,"sheep placental cytosol; Triclosan 0.1 to 10 μM, mean±S.D. of three individual samples",160±26 pmol/min/mg protein
same,Fraction of Triclosan that would be sulfonated,sheep placental cytosol; conditions of estradiol or estrone sulfonation assay with 1 nM Triclosan,less than 0.1%
same,Reported mean concentration of total Triclosan,"[4]; Breast milk, Sweden, Control female, ref Allmyr et al., 2006b",0.02 ng/g and 0.07 nM
same,Reported mean concentration of total Triclosan,"[4]; Breast milk, Sweden, Exposed female, ref Allmyr et al., 2006b",0.54 ng/g and 1.87 nM
same,Reported mean concentration of total Triclosan,"[4]; Serum, Australia, Female 2002, ref Allmyr et al., 2008",14 ng/g and 48.4 nM
same,Reported mean concentration of total Triclosan,"[4]; Serum, Australia, Female 2004, ref Allmyr et al., 2008",7.2 ng/g and 24.9 nM
same,Reported mean concentration of total Triclosan,"[4]; Serum, Australia, Male 2004, ref Allmyr et al., 2008",12 ng/g and 41.5 nM
same,Reported mean concentration of total Triclosan,"[4]; Serum, Sweden, Control female, ref Allmyr et al., 2006b",0.07 ng/g and 0.25 nM
same,Reported mean concentration of total Triclosan,"[4]; Serum, Sweden, Exposed female, ref Allmyr et al., 2006b",16 ng/g and 55.3 nM
same,Reported mean concentration of total Triclosan,"[4]; Urine, United States, Female, ref Calafat et al., 2008",10.6 μg/L and 36.6 nM
same,Reported mean concentration of total Triclosan,"[4]; Urine, United States, Male, ref Calafat et al., 2008",16.2 μg/L and 56.0 nM
"O=C(Nc1ccc(Cl)c(Cl)c1)Nc1ccc(Cl)cc1O [2′OH-TCC, 2′-hydroxy-triclocarban]",IC50,"[1]; read-out: IC50 for inhibition of estradiol sulfonation, 1 nM estradiol",310 ± 40 nM
"Oc1c(Cl)cc(-c2ccc(Cl)c(Cl)c2)cc1Cl [4′OH-CB79, 4-hydroxy-3,3′,4′,5-tetrachlorobiphenyl]",IC50,"expressed human SULT1E1; ref Kester et al., 2000",0.2 to 0.6 nM
